Reference: patent publication US12264163B2, “Compounds and methods for treating fibrotic pathologies” (Mayo Foundation for Medical Education and Research, priority 2019, dated 2025)

How the values were obtained:
Type in all cases: cell-based, human
YAP/TAZ [1] = experiment: YAP/TAZ nuclear localization in IPF patient-derived lung fibroblasts treated with dopaminergic agonists; conditions: 10 μM, 2 hours
How it was run: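 Fibroblasts from IPF patients (N=4 patient samples) were exposed to dopaminergic agonists at 10 μM for 2 h before fixation. Cells were immunostained for YAP/TAZ with DAPI counterstain and imaged at 4×. Percent nuclear YAP/TAZ localization was quantified by automated image analysis.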

YAP/TAZ [2] = experiment: YAP/TAZ localization in lung alveolar epithelial and endothelial cells; conditions: pulmonary (alveolar) epithelial and endothelial cells
Protocol: N=4 (****p<0.0001 vs. 0.1% DMSO vehicle control)
N=3 (****p<0.0001 vs. 0.1% DMSO vehicle control).
Human lung fibroblasts and alveolar epithelial cells are treated with MS-9 and influence on YAP/TAZ localization is determined.
Immunofluorescence Microscopy: Cells were plated into 96 well plates (Corning 3603) in their specific growth media and allowed to attach (8 hours). Media was then exchanged for the indicated conditions for each experiment. Cells were fixed in 3.7% formalin (Sigma-Aldrich), permeabilized in 0.25% Triton X-100 (Sigma-Aldrich) and then blocked with 1% BSA for 1 h. Cells or tissue sections were incubated overnight with mouse monoclonal antibody against αSMA (Sigma-Aldrich F3777), and/or a rabbit monoclonal antibody against YAP/TAZ (Cell Signaling D24E4) diluted 1:200 in PBS with 1% BSA. […] For scoring αSMA positive cells (FIG. 12), an observer blinded to the treatment conditions counted αSMA-positive cells using a visual threshold for bright fibrous staining; a minimum of 200 cells was counted for each condition. YAP/TAZ localization was quantified (FIGS. 6-10, 24-26, and 29-30) using Gen5 (Biotek) software. […] Quantification of double positive (YAP/TAZ and αSMA) cells from lung tissue sections (FIG. 17-21) was performed similarly; however separate thresholds were established for both YAP/TAZ and αSMA. A minimum of 4000 cells was quantified for each mouse.

cAMP = cAMP assay (cAMP-Glo) in fibroblasts; conditions: IPF patient-derived fibroblasts, 20 minutes, 10 μM
Protocol: FIG. 9 contains a bar graph showing cAMP measured in IPF patient-derived fibroblasts treated for 20 minutes with DHX (10 μM)+/−SCH 39166 (3 μM). N=3 (**p<0.01 vs. 0.1% DMSO vehicle control).
N=3, IMR-90 lung fibroblasts.
cAMPAssay: IPF patient derived fibroblasts were plated in EMEM containing 10% FBS overnight. […] 20 minutes prior to cell lysis media was removed and cells were treated with “induction buffer” containing nonselective phosphodiesterase inhibitors and the indicated concentration of compound(s). Luminescence was measured on a Flexstation 3 (Molecular Devices) plate reader.

hepatic stellate cells = experiment: TGFβ-mediated hepatic stellate cell activation, western blot of αSMA and fibronectin; conditions: HSCs, TGFβ 48 hours, DHX 10 μM
Protocol: HSCs were stimulated with TGFβ for 48 hours+/−DHX (10 μM) prior to total protein isolation and western blot analysis of αSMA and Fibronectin. N=3 (***p<0.001, **p<0.01, *p<0.05 vs. Control+TGFβ).
Western Blotting: Cells were plated in EMEM containing 10% FBS overnight. Media was exchanged with EMEM containing 0.1% FBS for 24 hours. Prior to protein isolation cells were treated with the indicated concentration of compounds for the indicated time. Total protein was isolated using RIPA buffer (pH 8.0) containing Pierce Phosphatase Inhibitor (Thermo) and Halt Protease Inhibitor Cocktail (Thermo). Lysate total protein concentration was determined using Pierce BCA Protein Assay Kit (Thermo) and samples were run on a 10% polyacrylamide gel. Blots were incubated overnight with primary antibodies: pYAP (Ser 127, Cell Signaling D9W21), YAP/TAZ (Cell Signaling D24E4), GAPDH (Cell Signaling 14C10), HSC70 (Santa Cruz sc-7298), αSMA (Abcam ab5694), and fibronectin (Santa Cruz sc-9068) diluted 1:1000 in Li-Cor Odyssey Blocking Buffer. Blots were washed with TBS-Tween before 60 minute incubation with IR-dye-conjugated secondary antibodies (Li-Cor) diluted 1:10,000. Plates were imaged via a Li-Cor OdysseyXL system with quantification performed via densitometry. […]

## Oc1cc2c(cc1O)[C@H]1c3ccccc3CN[C@@H]1CC2 (racemic) [Dihydrexidine]
YAP/TAZ [1]; IPF-1 patient fibroblasts
  Nuclear localization (% of total cells): 13.22 % of total cells
YAP/TAZ [1]; IPF-2 patient fibroblasts
  Nuclear localization (% of total cells): 21.79 % of total cells
YAP/TAZ [1]; IPF-3 patient fibroblasts
  Nuclear localization (% of total cells): 27.63 % of total cells
YAP/TAZ [1]; IPF-4 patient fibroblasts
  Nuclear localization (% of total cells): 21.08 % of total cells
YAP/TAZ [2]
  YAP/TAZ localization in epithelial / endothelial cells: no effect on YAP/TAZ localization
cAMP
  cAMP: elevated cAMP
Hepatic stellate cells
  TGFβ-mediated HSC expression of SMA and FN protein (western blotting): significant reversal of both
